Nine molecules from patent EP0549291A1, “Thymidylate synthase inhibitors” (TAKEDA CHEMICAL INDUSTRIES, LTD., priority 1991, dated 1993) can be followed below.

In assay [1] the target is T1, thymidylate synthase (TS) (Mus musculus, UniProt P07607).
T1 construct: A crude fraction of TS was prepared from Meth A fibrosarcoma (Meth A) cells subcultured in vitro; endogenous in cells; host or cells: Meth A fibrosarcoma cells (100,000 x g supernatant of ultrasonicated cells)
Description: Assay of TS inhibitory activity. It counts as biochemical. The note with it: crude TS fraction from Meth A cells; [H³]dUMP, 37°C, 1 hour; read-out: TS inhibitory activity IC₅₀. The procedure:
Assay of TS inhibitory activity
A crude fraction of TS was prepared from Meth A fibrosarcoma (Meth A) cells subcultured in vitro. For cell culture, Eagle's minimum essential medium (MEM, Nissui Pharmaceutical) containing 10% fetal bovine serum was used. Cells in the logarithmic growth phase were harvested, washed twice with phosphate buffered saline, suspended in 0.2 M sucrose and 0.01 M Tris-HCl buffer (pH 7.5), ultrasonicated, and centrifuged at 100,000 x g to obtain a supernatant. The protein concentration was determined using a protein dye reagent (Bio-Rad) with bovine γ-globulin as standard protein. Samples with a protein concentration of 100 mg/ml were prepared.
The enzymatic reaction was conducted as follows, using the method described by D. Roberts in Biochemistry 5, 3546 (1966), partially modified. The reaction mixture consisted of 0.058% formaldehyde, 6.78 mM sodium fluoride, 0.2 mM 2-mercaptoethanol, 6.24 mg/ml bovine serum albumin, 80 µM […] (dUMP), 80 µM tetrahydrofolic acid, 2 mg/ml crude TS fraction, and 0.173 M Tris-HCl buffer (pH 7.5). To this mixture was added a varying concentration of each Example compound. To 50 µl of each final mixture was added 540 KBq [H³]dUMP and the resultant mixture was incubated in a 96-well plate at 37°C for 1 hour. After completion of the incubation, 26.65% trichloroacetic acid and 3.33 mg/ml dUMP were added to stop the reaction and 220 µl of 11.4 mg/ml activated charcoal was added. The whole volume was centrifuged and the radioactivity in 100 µl of the supernatant was determined by the liquid scintillation method. Thus, the concentration required to cause 50% inhibition of TS activity (IC₅₀ value) was obtained.

Assay [2] has as its system Meth A fibrosarcoma (Meth A) cells. Description: Assay of antiproliferative activity against Meth A fibrosarcoma (Meth A) cells. It counts as cell-based. The note with it: Mus musculus, 72 hours culture at 37°C and 5% CO₂, cell count with Coulter counter, mean of 3 wells, read-out: Meth A cell growth inhibitory activity IC₅₀. The procedure: Assay of antiproliferative activity against Meth A fibrosarcoma (Meth A) cells
Meth A cells (2 x 10⁴ cells/ml) prepared in the routine manner were seeded, 2.0 ml per well, in a 12-well plate and subjected to stationary culture at 37°C and 5% CO₂. Each Example compound dissolved at an appropriate concentration was serially diluted 1:2 to 1:10 with MEM (Nissui Pharmaceutical) and added in the medium and again the cells were subjected to stationary culture for 72 hours at 37°C and 5% CO₂. Then, the total cell count at each concentration was determined with a Coulter counter (Coulter Electronics, FL) and the mean value of 3 wells was expressed as cell count per milliliter. The concentration of each compound required to reduce the cell count of the untreated control group to 50% was regarded as the IC₅₀ value of the compound.

T1 sequence (P07607 whole entry): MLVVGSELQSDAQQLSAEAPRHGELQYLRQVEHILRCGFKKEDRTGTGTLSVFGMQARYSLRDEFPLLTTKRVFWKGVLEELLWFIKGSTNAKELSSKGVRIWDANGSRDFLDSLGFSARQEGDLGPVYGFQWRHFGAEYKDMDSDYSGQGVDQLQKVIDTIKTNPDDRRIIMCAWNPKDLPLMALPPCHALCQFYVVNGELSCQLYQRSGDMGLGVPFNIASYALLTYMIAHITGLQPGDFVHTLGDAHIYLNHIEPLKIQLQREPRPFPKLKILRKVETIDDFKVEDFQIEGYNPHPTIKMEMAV

In the case of `Cn1cc(Cc2ccc(C(=O)N[C@@H](CCC(=O)O)C(=O)O)cc2)c2c(O)nc(N)nc21` [Example 2, N-[4-(2-amino-4-hydroxy-7-methylpyrrolo-[2,3-d]pyrimidin-5-yl)methylbenzoyl]-L-glutamic acid], in assay [1], the IC50 was 860 nM.
As for `Nc1nc(O)c2c(Cc3ccc(C(=O)N[C@@H](CCC(=O)O)C(=O)O)cc3)c[nH]c2n1` [Example 4, N-[4-(2-amino-4-hydroxy-7H-pyrrolo[2,3-d]pyrimidin-5-yl)methylbenzoyl]-L-glutamic acid], the IC50 in assay [2] was found to be 76 nM.
Take `Nc1nc2[nH]cc(Cc3ccc(C(=O)N[C@@H](CCC(=O)O)C(=O)O)s3)c2c(=O)[nH]1` [Example 6, N-[5-(2-amino-4-hydroxy-7H-pyrrolo[2,3-d]pyrimidin-5-yl)methyl-2-thenoyl]-L-glutamic acid]: the IC50 in assay [1] stood at 83 nM; in assay [2], 63 nM.
For the molecule `Nc1nc(O)c2c(Cc3ccc(C(=O)N[C@@H](CCC(=O)O)C(=O)O)cc3F)c[nH]c2n1` [Example 8, N-[4-(2-amino-4-hydroxy-7H-pyrrolo[2,3-d]pyrimidin-5-yl)methyl-3-fluorobenzoyl]-L-glutamic acid], the IC50 was 490 nM in assay [1] and 110 nM in assay [2].
The like results for `CC(c1ccc(C(=O)N[C@@H](CCC(=O)O)C(=O)O)cc1)c1c[nH]c2nc(N)nc(O)c12` (stereo partly drawn) [Example 10, N-[4-[1-(2-amino-4-hydroxy-7H-pyrrolo[2,3-d]pyrimidin-5-yl)ethyl]benzoyl]-L-glutamic acid] were, in that order, 39 nM and 66 nM.
As for `CCC(c1ccc(C(=O)N[C@@H](CCC(=O)O)C(=O)O)cc1)c1c[nH]c2nc(N)nc(O)c12` (stereo partly drawn) [Example 12, N-[4-[1-(2-amino-4-hydroxy-7H-pyrrolo[2,3-d]pyrimidin-5-yl)propyl]benzoyl]-L-glutamic acid], the IC50 in assay [2] was 39 nM.
Turning to `C=CC(c1ccc(C(=O)N[C@@H](CCC(=O)O)C(=O)O)cc1)c1c[nH]c2nc(N)nc(O)c12` (stereo partly drawn) [Example 14, N-[4-[1-(2-amino-4-hydroxy-7H-pyrrolo[2,3-d]pyrimidin-5-yl)-2-propenyl]benzoyl]-L-glutamic acid], the IC50 in assay [1] was 37 nM; in assay [2], 91 nM.
The like results for `Nc1nc(O)c2c(C(C[N+](=O)[O-])c3ccc(C(=O)N[C@@H](CCC(=O)O)C(=O)O)cc3)c[nH]c2n1` (stereo partly drawn) [Example 16, N-[4-[1-(2-amino-4-hydroxy-7H-pyrrolo[2,3-d]pyrimidin-5-yl)-2-nitroethyl]benzoyl]-L-glutamic acid] were, in that order, 590 nM and 93 nM.
For the molecule `NCC(c1ccc(C(=O)N[C@@H](CCC(=O)O)C(=O)O)cc1)c1c[nH]c2nc(N)nc(O)c12` (stereo partly drawn) [Example 18, N-[4-[1-(2-amino-4-hydroxy-7H-pyrrolo[2,3-d]pyrimidin-5-yl)-2-aminoethyl]benzoyl]-L-glutamic acid], in assay [2], the IC50 was 810 nM.
